The conditions of series [1]: as described by Bodineau et al. in Hypertension 2008 51, 1318-1325; cited from earlier work.
Series [2] in a line: Thermal stability of the product of each step (Table 1). It counts as physicochemical. Conditions: product of step (e) of the preferred method; cell text split over r17-r19: No decomposition observed. From the text:
Table 1 provides the reaction enthalpies, the purities (determined by HPLC and expressed as molar percentages) and the stabilities of the products of each step for this preferred method.

Series [3] is described as follows: Stability of solid forms (neat, hydrates) under ambient conditions. Format: physicochemical. The following applies: ambient conditions: 15-25° C., atmospheric pressure, relative humidity above 50%; hydrate mixtures evolve to the trihydrate within a few days. The protocol:
Any mixture of hydrates of compound I will evolve within a few days towards the trihydrate form in ambient conditions. Ambient conditions as used herein refer to a temperature between 15° C. and 25° C., at atmospheric pressure, and a relative humidity rate above 50%.

The structures appear in SMILES notation.

In the case of `N[C@@H](CCS(=O)(=O)O)CSSC[C@@H](N)CCS(=O)(=O)O` [Compound I, (3S,3S′) 4,4′-disulfanediylbis(3-aminobutane 1-sulfonic acid)], the melting point – broadly, the temperature of the solid-liquid transition – was found to be 78 °C. The Anti-hypertensor efficacy entry in series [1] was “efficient anti-hypertensor agent”. Moreover, the “Stability: decomposition” value in series [2] was “No”.

Consider `N[C@@H](CCS(=O)(=O)O)CSSC[C@@H](N)CCS(=O)(=O)O.O.O.O` [compound I, (3H2O)], for which, in series [3], the “Relative stability of solid form” value is given as “most stable form”.

These data come from patent US9340497B2, “Method for the preparation of (3S,3S′) 4,4′-disulfanediylbis (3-aminobutane 1-sulfonic acid)” (QUANTUM GENOMICS, priority 2010, dated 2016).
